Measured values: ChEMBL document CHEMBL1201862, “PubChem BioAssay data set” (2004)
Activity calls are given as the source filed them.

How the values were obtained:
[1] = molecular target: T1, Tyrosyl-DNA phosphodiesterase 2 (Homo sapiens, UniProt O95551); assay: human TDP2 enzyme inhibitors, dose response, biochemical, epi absorbance, IC50 (AID 743297)
T1 sequence (O95551 whole entry): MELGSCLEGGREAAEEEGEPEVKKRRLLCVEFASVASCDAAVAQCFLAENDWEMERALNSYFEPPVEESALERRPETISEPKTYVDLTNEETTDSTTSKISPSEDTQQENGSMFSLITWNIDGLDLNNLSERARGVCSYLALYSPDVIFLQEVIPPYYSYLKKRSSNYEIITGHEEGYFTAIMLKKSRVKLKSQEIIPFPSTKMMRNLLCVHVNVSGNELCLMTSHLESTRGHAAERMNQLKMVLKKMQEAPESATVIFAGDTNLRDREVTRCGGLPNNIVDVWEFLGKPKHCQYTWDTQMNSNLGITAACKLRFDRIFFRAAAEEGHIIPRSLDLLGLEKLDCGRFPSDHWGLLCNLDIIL

Caspase-6 = molecular target: T2, Caspase-6 (Homo sapiens, UniProt P55212); assay: human caspase-6 inhibitors, dose response, biochemical, VEID-R110 fluorescence, cherry-pick (AID 720632)
T2 sequence (P55212 whole entry): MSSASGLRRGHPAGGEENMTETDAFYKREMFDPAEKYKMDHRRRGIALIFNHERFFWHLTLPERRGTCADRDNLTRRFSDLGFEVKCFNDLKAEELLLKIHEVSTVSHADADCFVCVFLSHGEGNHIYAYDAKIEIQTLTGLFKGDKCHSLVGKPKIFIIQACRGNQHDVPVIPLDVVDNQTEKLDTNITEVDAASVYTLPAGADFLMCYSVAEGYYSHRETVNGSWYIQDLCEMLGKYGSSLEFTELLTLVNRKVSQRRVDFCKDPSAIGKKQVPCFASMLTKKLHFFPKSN

[2] = molecular target: T3, Histone-lysine N-methyltransferase NSD2 (Homo sapiens, UniProt O96028); assay type: biochemical
T3 sequence (O96028 whole entry): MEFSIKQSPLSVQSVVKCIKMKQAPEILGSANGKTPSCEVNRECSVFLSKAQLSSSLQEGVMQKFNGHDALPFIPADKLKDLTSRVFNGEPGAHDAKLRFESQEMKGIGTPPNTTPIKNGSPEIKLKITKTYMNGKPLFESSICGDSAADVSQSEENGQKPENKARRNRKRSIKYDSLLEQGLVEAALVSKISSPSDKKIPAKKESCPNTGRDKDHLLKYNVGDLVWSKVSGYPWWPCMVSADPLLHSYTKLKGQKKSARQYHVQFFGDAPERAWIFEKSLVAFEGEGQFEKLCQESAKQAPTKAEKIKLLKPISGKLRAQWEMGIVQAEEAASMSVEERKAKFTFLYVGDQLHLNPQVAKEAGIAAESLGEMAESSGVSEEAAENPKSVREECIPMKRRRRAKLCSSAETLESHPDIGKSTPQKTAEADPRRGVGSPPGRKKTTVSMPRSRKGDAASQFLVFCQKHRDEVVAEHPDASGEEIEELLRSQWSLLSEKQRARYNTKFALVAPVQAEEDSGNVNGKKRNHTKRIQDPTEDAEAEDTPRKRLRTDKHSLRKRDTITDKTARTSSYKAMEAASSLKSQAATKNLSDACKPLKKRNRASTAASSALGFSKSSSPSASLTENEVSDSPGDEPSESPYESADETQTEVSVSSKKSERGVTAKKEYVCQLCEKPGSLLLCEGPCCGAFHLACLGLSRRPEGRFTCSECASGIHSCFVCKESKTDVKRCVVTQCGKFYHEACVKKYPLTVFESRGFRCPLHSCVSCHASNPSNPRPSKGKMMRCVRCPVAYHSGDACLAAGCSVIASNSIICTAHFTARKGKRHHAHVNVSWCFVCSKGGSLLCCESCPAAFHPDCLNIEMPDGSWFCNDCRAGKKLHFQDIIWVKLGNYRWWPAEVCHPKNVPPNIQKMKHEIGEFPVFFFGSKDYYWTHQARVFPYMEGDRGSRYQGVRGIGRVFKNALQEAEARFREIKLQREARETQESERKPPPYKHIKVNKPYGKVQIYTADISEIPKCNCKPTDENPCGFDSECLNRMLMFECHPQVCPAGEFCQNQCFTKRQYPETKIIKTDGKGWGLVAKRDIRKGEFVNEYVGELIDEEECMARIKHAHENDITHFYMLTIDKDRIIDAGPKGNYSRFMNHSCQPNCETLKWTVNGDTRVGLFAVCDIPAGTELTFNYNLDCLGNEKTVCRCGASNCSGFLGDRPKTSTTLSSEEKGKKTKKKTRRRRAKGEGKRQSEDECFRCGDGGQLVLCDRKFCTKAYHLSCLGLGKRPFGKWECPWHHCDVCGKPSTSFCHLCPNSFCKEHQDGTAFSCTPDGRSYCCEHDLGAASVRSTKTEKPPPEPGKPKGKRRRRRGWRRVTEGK

[3] = molecular target: T4, Replicative DNA helicase DnaB (Mycobacterium tuberculosis, UniProt P9WMR3); assay: DnaB intein splicing inhibitors, dose response, biochemical, cell-free fluorescence (AID 449749); assay type: functional
T4 sequence (P9WMR3 whole entry): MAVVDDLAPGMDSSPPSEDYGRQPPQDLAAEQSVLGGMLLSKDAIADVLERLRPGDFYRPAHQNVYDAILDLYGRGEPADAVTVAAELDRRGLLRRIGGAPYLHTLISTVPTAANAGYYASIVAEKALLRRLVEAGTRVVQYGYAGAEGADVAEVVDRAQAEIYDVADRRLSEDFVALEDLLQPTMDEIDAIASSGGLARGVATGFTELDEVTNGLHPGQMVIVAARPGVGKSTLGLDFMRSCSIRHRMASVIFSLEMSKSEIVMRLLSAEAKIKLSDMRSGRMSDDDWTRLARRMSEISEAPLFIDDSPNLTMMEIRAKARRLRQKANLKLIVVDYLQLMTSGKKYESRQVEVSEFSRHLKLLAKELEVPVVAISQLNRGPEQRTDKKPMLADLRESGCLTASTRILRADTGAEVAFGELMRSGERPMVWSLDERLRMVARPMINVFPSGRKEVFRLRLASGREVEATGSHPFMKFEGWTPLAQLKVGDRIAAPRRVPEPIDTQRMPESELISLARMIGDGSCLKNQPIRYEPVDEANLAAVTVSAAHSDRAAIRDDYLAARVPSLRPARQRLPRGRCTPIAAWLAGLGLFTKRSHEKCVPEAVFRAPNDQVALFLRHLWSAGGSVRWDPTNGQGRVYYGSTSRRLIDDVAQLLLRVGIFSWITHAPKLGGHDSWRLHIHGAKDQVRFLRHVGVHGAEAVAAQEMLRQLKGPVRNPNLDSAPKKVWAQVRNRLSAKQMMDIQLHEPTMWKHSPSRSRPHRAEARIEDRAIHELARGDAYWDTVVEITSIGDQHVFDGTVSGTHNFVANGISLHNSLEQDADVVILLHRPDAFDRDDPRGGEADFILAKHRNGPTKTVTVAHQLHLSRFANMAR

[4] = LGR2 antagonists, dose response, cell-based, HEK293, CRE-luciferase reporter, cherry pick, set 2 (AID 743343); assay type: functional;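 further: transfected cells were stimulated with diluted bursicon conditioned medium after compound addition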
BJ [5] = assay: cytotoxicity toward BJ-TERT-LT-ST fibroblasts, dose response, cell-based, RAS-independent, luminescence (AID 1935); assay type: functional; conditions: Homo sapiens;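 further: BJ fibroblasts immortalized with TERT plus LT and ST oncogenes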
Protein RecA = molecular target: T5, Protein RecA (Mycobacterium tuberculosis, UniProt P9WHJ3); assay: Fluorescence Cell-Free Homogeneous Dose Retest to Identify Inhibitors of RecA-Intein Splicing Activity. [Related pubchem assays (depositor defined):AID2097, AID2223, AID489010, AID492950]; assay type: functional
T5 sequence (P9WHJ3 whole entry): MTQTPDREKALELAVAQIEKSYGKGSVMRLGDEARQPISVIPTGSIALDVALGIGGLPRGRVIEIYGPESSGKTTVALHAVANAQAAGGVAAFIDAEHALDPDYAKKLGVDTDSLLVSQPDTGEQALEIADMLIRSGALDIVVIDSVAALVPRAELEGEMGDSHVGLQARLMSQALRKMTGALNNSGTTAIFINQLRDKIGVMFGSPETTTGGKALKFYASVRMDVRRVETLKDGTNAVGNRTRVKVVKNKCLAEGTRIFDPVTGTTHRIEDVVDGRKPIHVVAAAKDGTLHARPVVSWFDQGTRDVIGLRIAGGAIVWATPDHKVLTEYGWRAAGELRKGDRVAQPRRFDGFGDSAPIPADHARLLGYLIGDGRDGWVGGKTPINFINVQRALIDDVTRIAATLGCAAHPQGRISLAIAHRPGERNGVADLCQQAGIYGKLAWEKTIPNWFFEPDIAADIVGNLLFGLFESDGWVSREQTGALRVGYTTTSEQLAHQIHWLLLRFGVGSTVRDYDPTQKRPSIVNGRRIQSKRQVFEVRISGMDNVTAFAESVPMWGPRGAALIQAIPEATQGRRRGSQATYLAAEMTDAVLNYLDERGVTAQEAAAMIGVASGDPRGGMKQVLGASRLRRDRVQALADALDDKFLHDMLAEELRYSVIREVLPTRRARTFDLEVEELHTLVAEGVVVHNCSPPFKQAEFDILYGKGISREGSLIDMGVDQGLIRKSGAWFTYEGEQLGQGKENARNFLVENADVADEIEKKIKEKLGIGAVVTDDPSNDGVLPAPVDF

[6] = HepG2 cell cytotoxicity, dose response, cytotoxicity control, plate reader, cherry-pick, antagonist series (AID 743416); assay type: functional, cell-based
[7] = cytotoxicity toward DRD oncogenic fibroblasts, dose response, cell-based, non-viral oncogenic, luminescence (AID 1934); assay type: functional; conditions: Homo sapiens
BJ [8] = assay: cytotoxicity toward BJ-TERT fibroblasts, dose response, cell-based, RAS-independent, luminescence (AID 1933); assay type: functional; conditions: Homo sapiens
BJ [9] = assay: cells; assay type: functional, cell-based; conditions: Homo sapiens
[10] = A549 cell cytotoxicity, dose response, cytotoxicity control, plate reader, cherry-pick, antagonist series (AID 743412); assay type: functional, cell-based
[11] = MC4R antagonists, dose response, counter-screen for LGR2 antagonist project, cell-based, plate reader, cherry pick (AID 743444); assay type: functional;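 further: transfected HEK 293 cells stimulated with alpha-MSH peptide; potency of inhibitors of the alpha-MSH evoked signal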
[12] = HEK293 cell cytotoxicity, dose response, cytotoxicity control, plate reader, cherry-picked samples (AID 743446); assay type: functional, cell-based
Cytochrome P450 1A2 = molecular target: T6, Cytochrome P450 1A2 (Homo sapiens, UniProt P05177);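 further: PubChem cytochrome P450 panel assay, CYP1A2 panel member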
T6 sequence (P05177 whole entry): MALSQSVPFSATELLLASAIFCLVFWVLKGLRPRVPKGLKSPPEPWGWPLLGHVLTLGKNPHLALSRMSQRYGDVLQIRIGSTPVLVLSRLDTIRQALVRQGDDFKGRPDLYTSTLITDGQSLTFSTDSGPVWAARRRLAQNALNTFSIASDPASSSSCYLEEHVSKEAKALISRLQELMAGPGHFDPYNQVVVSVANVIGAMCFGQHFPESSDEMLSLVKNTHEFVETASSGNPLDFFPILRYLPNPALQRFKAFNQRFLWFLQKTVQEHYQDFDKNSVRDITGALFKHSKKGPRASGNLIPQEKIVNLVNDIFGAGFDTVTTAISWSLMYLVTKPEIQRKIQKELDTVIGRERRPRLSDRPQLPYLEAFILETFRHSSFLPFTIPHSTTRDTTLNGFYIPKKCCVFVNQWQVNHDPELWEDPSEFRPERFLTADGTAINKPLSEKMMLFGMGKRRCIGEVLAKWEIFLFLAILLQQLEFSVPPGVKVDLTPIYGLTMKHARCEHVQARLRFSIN

[13] = molecular target: T7, Microphthalmia-associated transcription factor (Homo sapiens, UniProt O75030); assay: TRPM1 promoter luciferase signal decrease, dose response, MITF inhibitor project, cell-based, SK-MEL-5, cherry-picked, set 3 (AID 493073); assay type: functional
T7 sequence (O75030 whole entry): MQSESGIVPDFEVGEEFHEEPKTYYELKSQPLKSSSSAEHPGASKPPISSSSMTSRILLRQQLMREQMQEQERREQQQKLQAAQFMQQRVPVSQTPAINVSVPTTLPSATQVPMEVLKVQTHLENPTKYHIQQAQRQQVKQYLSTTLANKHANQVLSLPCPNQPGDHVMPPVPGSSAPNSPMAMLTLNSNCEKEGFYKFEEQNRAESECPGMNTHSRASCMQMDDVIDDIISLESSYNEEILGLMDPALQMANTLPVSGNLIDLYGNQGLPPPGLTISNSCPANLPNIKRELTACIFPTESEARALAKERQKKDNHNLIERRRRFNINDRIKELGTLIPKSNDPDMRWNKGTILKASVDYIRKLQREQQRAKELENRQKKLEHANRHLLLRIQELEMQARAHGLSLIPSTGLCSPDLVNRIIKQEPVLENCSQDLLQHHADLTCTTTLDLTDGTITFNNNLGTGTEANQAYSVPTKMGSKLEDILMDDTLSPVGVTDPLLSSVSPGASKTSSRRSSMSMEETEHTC

[14] = Luminescence Cell-Based Dose Confirmation HTS to Identify Inhibitors of Platelet Dense Granule Release. [Related pubchem assays: 1663 (Primary HTS), 1678 (Summary of Project)]; assay type: functional
[15] = molecular target: Luciferin 4-monooxygenase (Photinus pyralis, UniProt P08659); assay: firefly luciferase enzyme inhibitors, dose response, biochemical, luminescence (AID 1891)
Sequence of Luciferin 4-monooxygenase (P08659 whole entry): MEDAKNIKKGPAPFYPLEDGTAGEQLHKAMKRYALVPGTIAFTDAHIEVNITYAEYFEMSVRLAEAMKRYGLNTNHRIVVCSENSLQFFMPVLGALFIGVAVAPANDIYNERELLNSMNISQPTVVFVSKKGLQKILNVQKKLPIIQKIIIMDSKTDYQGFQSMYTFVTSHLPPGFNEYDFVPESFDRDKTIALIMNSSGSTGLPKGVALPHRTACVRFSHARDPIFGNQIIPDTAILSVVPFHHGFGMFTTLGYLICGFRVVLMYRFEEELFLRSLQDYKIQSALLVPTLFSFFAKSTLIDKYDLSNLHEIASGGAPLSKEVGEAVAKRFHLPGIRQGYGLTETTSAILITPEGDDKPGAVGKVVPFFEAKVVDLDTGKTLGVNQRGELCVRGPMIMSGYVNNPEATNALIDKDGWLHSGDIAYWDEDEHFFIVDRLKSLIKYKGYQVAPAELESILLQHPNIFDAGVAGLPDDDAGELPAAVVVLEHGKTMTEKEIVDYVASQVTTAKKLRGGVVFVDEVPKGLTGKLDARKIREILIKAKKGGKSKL

Row | SMILES | IC50 [1] | AC50 (Caspase-6) | AC50 [2] | AC50 [3] | AC50 [4] | EC50 (BJ [5]) | EC50 (Protein RecA) | AC50 [6] | EC50 [7] | EC50 (BJ [8]) | EC50 (BJ [9]) | AC50 [10] | AC50 [11] | AC50 [12] | AC50 (Cytochrome P450 1A2) | AC50 [13] | EC50 [14] | EC50 [15]
1 | Cc1cnc(C2OCCO2)c2cccc(N)c12 | > 129 µM (inactive) | 26.2 µM (active) | 18.5 µM (active) | – | – | – | – | – | – | – | – | – | – | – | – | – | – | –
2 | O=[N+]([O-])c1ccc(Sc2nnnn2-c2ccccc2)nc1 | – | – | – | 14.5 µM (active) | 14.9 µM (active) | > 150 µM (inconclusive) | 5.61 µM (active) | 15.7 µM (active) | 9.86 µM (active) | 6.26 µM (active) | 63.6 µM (inconclusive) | 18.5 µM (active) | 17.6 µM (active) | 12.5 µM (active) | – | – | – | –
3 | Cc1cccc(Cn2ncc(Cl)c(Cl)c2=O)c1 | – | – | – | 27.5 µM (active) | – | – | 6.04 µM (active) | 37.3 µM (active) | – | – | – | 30 µM (active) | – | 17.4 µM (active) | 22.4 µM (inconclusive) | – | – | –
4 | COc1cc(SC)ccc1C(=O)Nc1ncc(C)s1 | – | – | – | – | 1 µM (active) | – | – | – | – | – | – | – | 1.01 µM (active) | > 52 µM (inactive) | – | 3.65 µM (active) | 11.6 µM (active) | 8.16 µM (active)
